Results published in patent US20200017496A1 (priority 2017, published 2020).
Values joined by “and” are separate entries in the source; they are usually repeats but may differ in a detail not shown here. Identical values can stand only once. Like-named read-outs stand apart in the source and are kept apart here.

Legend:
Assay in all cases: MIC of compounds alone and combined with antibacterials, broth microdilution (CLSI)
Type in all cases: cell-based
[1] = test system: Citrobacter koseri (CKR) isolates; details: for MIC ATB in combination: AF1 @ 4 μg/mL; for MIC: Citrobacter koseri
Protocol: (§1) Method 2: MIC of Compounds Alone and Combined with Antibacterials Against Bacterial Isolates.
(§2) Compounds of the present invention were assessed against genotyped bacterial strains (Table 3, 4) alone or in combination with an antibacterial (Table 2). […] Log phase bacterial suspensions were adjusted to a final density of 5·10^5 CFU/mL in cation-adjusted Mueller-Hinton broth (ca-MHB; Becton-Dickinson and Company) and added to each well (98 μL). Microplates were incubated for 16-20 h at 35° C. in ambient air. The MIC of the compounds was defined as the lowest concentration of said compounds that prevented bacterial growth as read by visual inspection. The MIC of ATB at each compound concentration was defined as the lowest concentration of ATB that prevented bacterial growth as read by visual inspection.

[2] = test system: Enterobacter aerogenes (EAE) isolates
Protocol: as §1, §2

[3] = test system: Escherichia coli (ECO) isolates; details: for MIC: Escherichia coli
Protocol: as §1, §2

[4] = test system: Morganella morganii (MMO) isolates; details: for MIC: Morganella morganii
Protocol: as §1, §2

[5] = test system: Providencia rettgeri (PRE) isolates; details: for MIC: Providencia rettgeri
Protocol: as §1, §2

[6] = test system: Providencia stuartii (PST) isolates; details: for MIC ATB in combination: AF1 @ 4 μg/mL
Protocol: as §1, §2

[7] = test system: Serratia marcescens (SMA) isolates
Protocol: as §1, §2

CC1(C)S[C@@H]2[C@H](NC(=O)[C@H](N)c3ccc(O)cc3)C(=O)N2[C@H]1C(=O)O [AMX, Amoxicillin]
> 512 µg/mL: MIC ([3]; strain ECO 131119 (TEM-1, OXA-48), CLA @ 4 μg/ml+ ATB)
128 µg/mL and >256 µg/mL: MIC [7]
4 µg/mL: MIC ATB in combination ([3]; ECO UFR189, AF1 @ 4 μg/mL) | MIC ATB in combination ([3]; ECO UFR209, AF1 @ 4 μg/mL) | MIC ([3]; strain ECO 260096 (CTX-M-132), CLA @ 4 μg/ml+ ATB) | MIC ([3]; strain ECO 260304 (CTX-M-15), CLA @ 4 μg/ml+ ATB)
2 µg/mL: MIC ATB in combination ([3]; ECO UFR86, AF1 @ 4 μg/mL)
64 µg/mL: MIC ATB in combination ([1]; CKO UFR150) | MIC ATB in combination ([2]; EAE UFR199, AF1 @ 4 μg/mL) | MIC ATB in combination ([2]; EAE UFR202, AF1 @ 4 μg/mL) | MIC ATB in combination ([3]; ECO 190317, AF1 @ 4 μg/mL) | MIC ATB in combination ([3]; ECO 190457, AF1 @ 4 μg/mL) | MIC ATB in combination ([3]; ECO 260508, AF1 @ 4 μg/mL) | MIC ATB in combination ([3]; ECO UFR18, AF1 @ 4 μg/mL) | MIC ATB in combination ([3]; ECO UFR19, AF1 @ 4 μg/mL) | MIC ATB in combination ([3]; ECO UFR61O, AF1 @ 4 μg/mL) | MIC ATB in combination ([3]; ECO UFR212, AF1 @ 4 μg/mL) | MIC ([3]; strain ECO 190317 (TEM-1, SHV-12, CTX-M-15, OXA-1), CLA @ 4 μg/ml+ ATB) | MIC ([3]; strain ECO 260508 (TEM-1, CTX-M-15, OXA-1), CLA @ 4 μg/ml+ ATB) | MIC ATB in combination ([4]; MMO UFR243, AF1 @ 4 μg/mL) | MIC ATB in combination ([4]; MMO UFR244, AF1 @ 4 μg/mL) | MIC ATB in combination ([4]; MMO UFR245, AF1 @ 4 μg/mL) | MIC ATB in combination ([4]; MMO UFR246, AF1 @ 4 μg/mL) | MIC ATB in combination ([7]; SMA UFR137, AF1 @ 4 μg/mL) | MIC ATB in combination ([7]; SMA UFR138, AF1 @ 4 μg/mL) | MIC ATB in combination ([7]; SMA UFR139, AF1 @ 4 μg/mL) | MIC ATB in combination ([7]; SMA UFR239, AF1 @ 4 μg/mL) | MIC ([7]; Serratia marcescens, strain SMA UFR239 (ESAC), CLA @ 4 μg/ml+ ATB, read-out: MIC)
512 µg/mL: MIC ATB in combination ([1]; CKO UFR149) | MIC ATB in combination ([5]; strain PRE UFR236, antibacterial combined with AF1 @ 4 μg/mL)
128 µg/mL: MIC ATB in combination [2] | MIC ATB in combination [3] | MIC ATB in combination [4] | MIC [6] | MIC ATB in combination [7]
8 µg/mL: MIC ATB in combination ([3]; ECO UFR190, AF1 @ 4 μg/mL) | MIC ATB in combination ([3]; ECO UFR191, AF1 @ 4 μg/mL) | MIC ATB in combination ([3]; ECO UFR218, AF1 @ 4 μg/mL) | MIC ([3]; strain ECO 190314 (CTX-M-1), CLA @ 4 μg/ml+ ATB) | MIC ([3]; strain ECO 190549 (CTX-M-1), CLA @ 4 μg/ml+ ATB) | MIC ([3]; strain ECO 200159 (TEM-1, CTX-M-14), CLA @ 4 μg/ml+ ATB) | MIC ([3]; strain ECO 200259 (CTX-M-14), CLA @ 4 μg/ml+ ATB) | MIC ([3]; strain ECO UFR210 (SHV-12), CLA @ 4 μg/ml+ ATB) | MIC ([3]; strain ECO UFR211 (TEM-24), CLA @ 4 μg/ml+ ATB)
> 128 µg/mL: MIC ([1]; strain CKO ROU (TEM-1, SHV-12, CTX-M-15, OXA-1, OXA-48), CLA @ 4 μg/ml+ ATB) | MIC ([1]; strain CKO UFR149 (OXA-48), ATB alone) | MIC ([1]; strain CKO UFR149 (OXA-48), CLA @ 4 μg/ml+ ATB) | MIC ([1]; strain CKO UFR150 (TEM-1, OXA-48), ATB alone) | MIC ([1]; strain CKO UFR150 (TEM-1, OXA-48), CLA @ 4 μg/ml+ ATB) | MIC ([2]; Klebsiella aerogenes) | MIC [4] | MIC ([4]; strain MMO 200321 (TEM-1, CTX-M-15, OXA-1), CLA @ 4 μg/ml+ ATB) | MIC ([4]; strain MMO UFR144 (TEM-1, CTX-M-15), ATB alone) | MIC ([4]; strain MMO UFR144 (TEM-1, CTX-M-15), CLA @ 4 μg/ml+ ATB) | MIC ([4]; strain MMO UFR240 (CTX-M-9), ATB alone) | MIC ([4]; strain MMO UFR240 (CTX-M-9), CLA @ 4 μg/ml+ ATB) | MIC ([4]; strain MMO UFR241 (TEM-1, CTX-M-15), ATB alone) | MIC ([4]; strain MMO UFR241 (TEM-1, CTX-M-15), CLA @ 4 μg/ml+ ATB) | MIC ([4]; strain MMO UFR242 (TEM-52), ATB alone) | MIC ([4]; strain MMO UFR242 (TEM-52), CLA @ 4 μg/ml+ ATB) | MIC ([5]; ATB combined with CLA @ 4 μg/ml, strain PRE UFR236 (TEM-1, OXA-48)) | MIC ([5]; strain PRE UFR99 (OXA-1, OXA-181), ATB alone) | MIC ([5]; strain PRE UFR99 (OXA-1, OXA-181), CLA @ 4 μg/ml+ ATB) | MIC ([5]; ATB alone, strain PRE UFR236 (TEM-1, OXA-48)) | MIC ([6]; Providencia stuartii) | MIC ([7]; Serratia marcescens)
256 µg/mL: MIC ATB in combination ([3]; ECO 5302, AF1 @ 4 μg/mL) | MIC ATB in combination ([3]; ECO RGN238, AF1 @ 4 μg/mL) | MIC ATB in combination ([3]; ECO UFR185, AF1 @ 4 μg/mL) | MIC ATB in combination ([3]; ECO UFR208, AF1 @ 4 μg/mL) | MIC ATB in combination ([4]; MMO 200321, AF1 @ 4 μg/mL) | MIC ATB in combination ([7]; SMA UFR30, AF1 @ 4 μg/mL) | MIC ATB in combination ([7]; SMA UFR135, AF1 @ 4 μg/mL) | MIC ATB in combination ([7]; SMA UFR136, AF1 @ 4 μg/mL) | MIC ATB in combination ([7]; SMA UFR143, AF1 @ 4 μg/mL)
> 1020 µg/mL: MIC ([2]; Klebsiella aerogenes, strain EAE 49469 (AmpC), ATB alone, read-out: MIC) | MIC ([3]; strain ECO 131119 (TEM-1, OXA-48), ATB alone) | MIC ([3]; strain ECO 190317 (TEM-1, SHV-12, CTX-M-15, OXA-1), ATB alone) | MIC ([3]; strain ECO RGN238 (OXA-1), ATB alone)
> 256 µg/mL: MIC ([1]; strain CKO ROU (TEM-1, SHV-12, CTX-M-15, OXA-1, OXA-48), ATB alone) | MIC ([4]; strain MMO 200321 (TEM-1, CTX-M-15, OXA-1), ATB alone)
32 µg/mL: MIC ATB in combination ([1]; CKO ROU) | MIC ATB in combination ([2]; EAE UFR213, AF1 @ 4 μg/mL) | MIC ATB in combination ([3]; ECO UFR174, AF1 @ 4 μg/mL) | MIC ATB in combination ([3]; ECO UFR175, AF1 @ 4 μg/mL) | MIC ATB in combination ([3]; ECO UFR176, AF1 @ 4 μg/mL) | MIC ATB in combination ([3]; ECO UFR184, AF1 @ 4 μg/mL) | MIC ATB in combination ([3]; ECO UFR207, AF1 @ 4 μg/mL) | MIC ([3]; strain ECO UFR207 (CTX-M-15), CLA @ 4 μg/ml+ ATB) | MIC ([3]; strain ECO UFR209 (TEM-1, CTX-M-15), CLA @ 4 μg/ml+ ATB) | MIC ([3]; strain ECO UFR218 (TEM-1, SHV-1, CTX-M-15), CLA @ 4 μg/ml+ ATB) | MIC ATB in combination ([4]; MMO UFR240, AF1 @ 4 μg/mL) | MIC ATB in combination ([4]; MMO UFR247, AF1 @ 4 μg/mL) | MIC ATB in combination ([6]; PST UFR95) | MIC ATB in combination ([6]; PST UFR235)
<=1 μg/mL: MIC ATB in combination ([2]; EAE UFR201, AF1 @ 4 μg/mL) | MIC ATB in combination ([3]; ECO 180070, AF1 @ 4 μg/mL) | MIC ATB in combination ([3]; ECO 190314, AF1 @ 4 μg/mL) | MIC ATB in combination ([3]; ECO 190549, AF1 @ 4 μg/mL) | MIC ATB in combination ([3]; ECO 200159, AF1 @ 4 μg/mL) | MIC ATB in combination ([3]; ECO 200259, AF1 @ 4 μg/mL) | MIC ATB in combination ([3]; ECO 200344, AF1 @ 4 μg/mL) | MIC ATB in combination ([3]; ECO 260096, AF1 @ 4 μg/mL) | MIC ATB in combination ([3]; ECO 260304, AF1 @ 4 μg/mL) | MIC ATB in combination ([3]; ECO UFR210, AF1 @ 4 μg/mL) | MIC ATB in combination ([3]; ECO UFR211, AF1 @ 4 μg/mL)
>256 µg/mL: MIC [2]
>512 µg/mL: MIC ATB in combination ([5]; PRE UFR99, AF1 @ 4 μg/mL)
16 µg/mL: MIC ([2]; Klebsiella aerogenes, strain EAE UFR201 (TEM-1, SHV-12, CTX-M-15), CLA @ 4 μg/ml+ ATB, read-out: MIC) | MIC ATB in combination ([3]; ECO 131119, AF1 @ 4 μg/mL) | MIC ATB in combination ([3]; ECO UFR15, AF1 @ 4 μg/mL) | MIC ATB in combination ([3]; ECO UFR62, AF1 @ 4 μg/mL) | MIC ATB in combination ([3]; ECO UFR186, AF1 @ 4 μg/mL) | MIC ATB in combination ([3]; ECO UFR187, AF1 @ 4 μg/mL) | MIC ([3]; strain ECO 180070 (TEM-1, CTX-M-15), CLA @ 4 μg/ml+ ATB) | MIC ([3]; strain ECO 200344 (CTX-M-1), CLA @ 4 μg/ml+ ATB) | MIC ATB in combination ([6]; PST UFR94)
